Test results published in paper PMC3948622, “Docking, Synthesis and Antiproliferative Activity of N-Acylhydrazone Derivatives Designed as Combretastatin A4 Analogues” (PLoS ONE, 2014).
Values after ≈ are worked out from the molar mass of the structure shown.

Key:
[1] = tested on: MDA-MB435 (melanoma); experiment: In vitro antiproliferative MTT assay, MDA-MB435; type: cell-based; settings: Homo sapiens, MDA-MB-435; Table 2; MTT
[2] = tested on: PC3M (prostate cancer); experiment: In vitro antiproliferative MTT assay, PC3M; type: cell-based; settings: for IC50: Homo sapiens, PC-3M, Table 2, MTT; for SI Lymphocyte/ PC3M: IC50 for human lymphocytes/IC50 for cancer cell line
Description: (§1) The antiproliferative activity of compounds 5a–r was determined based on an MTT assay and using CA-4 as standard against the tumor cell lines: HL-60 (human leukemia), SF-295 (human glioblastoma), MDA-MB435 (melanoma), PC3M (prostate cancer), OVCAR-8 (ovaries adenocarcinoma), NCI-H258M (pulmonary bronchio-alveolar carcinoma) and HCT-8 (adenocarcinoma ileocecal) (Table 2). To determine the selectivity index of compounds 5a–r, their antiproliferative profile was also evaluated toward human lymphocytes (Table 2).
(§2) Compounds (0.009–5 µg/mL) were tested for cytotoxic activity against selected cancer cell lines: SF-295 (glioblastoma), HCT-8 (colon), MDAMB-435 (melanoma), HL60 (leukemia), PC3M (prostate cancer), OVCAR-8 (ovaries adenocarcinoma) and NCI-H258M (pulmonary bronchio-alveolar carcinoma). All cell lines were kindly obtained from the National Cancer Institute (Bethesda, MD, USA).Tumor cell proliferation was quantified through the ability of living cells to reduce the yellow dye 3-(4,5-dimethyl-2-thiazolyl)-2,5-diphenyl-2H-tetrazolium bromide (MTT, Sigma Aldrich)) to a purple formazan product and absorbance was measured at 595 nm (DTX-880, Beckman Coulter).

[3] = tested on: SF-295 (human glioblastoma); experiment: In vitro antiproliferative MTT assay, SF-295; type: cell-based; settings: for IC50: Homo sapiens, SF-295, Table 2, MTT, read-out: IC50 SF295; for SI Lymphocyte/ SF-295: IC50 for human lymphocytes/IC50 for cancer cell line
Description: as §1, §2

[4] = tested on: HCT-8 (adenocarcinoma ileocecal); experiment: In vitro antiproliferative MTT assay, HCT-8; type: cell-based; settings: for IC50: Homo sapiens, HCT-8, Table 2, MTT; for SI Lymphocyte/ HCT-8: IC50 for human lymphocytes/IC50 for cancer cell line
Description: as §1, §2

[5] = Aqueous solubility assay by ultraviolet spectroscopy; type: physicochemical; settings: water (saturated aqueous solution), thermodynamic from solid, 2 hours at 37°C, read-out: Aq. Solubility
Description: Ultraviolet spectroscopy was performed using Femto spectrophotometer. The wavelength used in solubility assay was determined by the -λ max characteristic of each compound. Spectra were analyzed in Femtoscan software. Mass spectrometry was obtained by positive ionization at Bruker AmaZon SL and data analyzed in Compass 1.3.SR2 software.
The solubility assay was performed considering the absorptivity of compounds in ultraviolet spectroscopy as described by Schneider and coworkers. The assay wavelength was determined by the λ max characteristic of each compound.
Saturated aqueous solutions were prepared (0.01 mg/mL) and were kept under stirring for 2 hours at 37°C. The supernatant was filtered in 0,45 µm filters and transferred to a quartz cuvette (10 mm) to spectra acquisition.
Solubility was determined by linear regression using as graph plots, solutions prepared by dilutions of the original solution in methanol. The data were obtained in triplicates and the mean values were used to the graph plots. The correlation coefficient (R^2) values were between 0.9972 and 0.9999.

[6] = tested on: HL-60 (human leukemia); experiment: In vitro antiproliferative MTT assay, HL-60; type: cell-based; settings: for IC50: Homo sapiens, HL-60, Table 2, MTT; for SI Lymphocyte/ HL-60: IC50 for human lymphocytes/IC50 for cancer cell line
Description: as §1, §2

[7] = tested on: OVCAR-8 (ovaries adenocarcinoma); experiment: In vitro antiproliferative MTT assay, OVCAR-8; type: cell-based; settings: for IC50: Homo sapiens, OVCAR-8, Table 2, MTT; for SI Lymphocyte/ OVCAR-8: IC50 for human lymphocytes/IC50 for cancer cell line
Description: as §1, §2

[8] = tested on: human lymphocytes; experiment: In vitro antiproliferative assay, human lymphocytes; type: cell-based; settings: Lymphocyte, Table 2
Description: as §1
To investigate the selective cytotoxic activity of the N-acylhydrazones derivatives (5a–r), their antiproliferative potency was also assessed toward human lymphocytes and the results were compared to the data from CA-4 ([…]). The selectivity index (SI), which was the IC50 for human lymphocytes/IC50 for cancer cell lines after treatment with CA-4 and N-acylhydrazones (5a–r), was calculated, as depicted in Table 3. […] The best comparative selectivity indices (CA-4 vs 5b) were obtained from the SF-295 (SI = 13), MDA-MB435 (SI = 42) and NCI-H258M (SI = 9.5) tumor cell lines, and the worst results were found for OVCAR-8 (SI = 0.5).

[9] = tested on: MDA-MB435 (melanoma); experiment: In vitro antiproliferative MTT assay, MDA-MB435; type: cell-based; settings: IC50 for human lymphocytes/IC50 for cancer cell line
Description: as §1, §2

[10] = tested on: NCI-H358M (pulmonary bronchio-alveolar carcinoma); experiment: In vitro antiproliferative MTT assay, NCI-H358M; type: cell-based; settings: for SI Lymphocyte/ NCI-H358M: IC50 for human lymphocytes/IC50 for cancer cell line; for IC50: NCI-H358M, Table 2, MTT

Row | SMILES | IC50 [1] | IC50 [2] | IC50 [3] | SI Lymphocyte/ SF-295 [3] | IC50 [4] | SI Lymphocyte/ HCT-8 [4] | solubility at 2 h [5] | IC50 [6] | SI Lymphocyte/ HL-60 [6] | IC50 [7] | IC50 [8] | SI Lymphocyte/ MDA-MB345 [9] | SI Lymphocyte/ NCI-H358M [10] | IC50 [10] | SI Lymphocyte/ PC3M [2] | melting point | SI Lymphocyte/ OVCAR-8 [7]
1 | COc1ccc(/C=C\c2cc(OC)c(OC)c(OC)c2)cc1O [CA-4, Combretastatin A4] | 0.0079 µM | 0.0047 µM | 0.0062 µM | 0.44±0.04 | 0.0053 µM | 0.59±0.01 | 5.44 µg/mL (≈ 17.2 µM) | 0.0021 µM | 1.44±0.05 | 0.00037 µM | 0.0032 µM | 0.42±0.02 | 0.52±0.12 | 0.008 µM | – | – | –
2 | COc1cc(C(=O)N/N=C/c2cccc(O)c2)cc(OC)c1OC [Compound 5c, (E)-N′-(3-hydroxybenzylidene)-3,4,5-trimetoxybenzohydrazide] | 0.12 µM | 7.51 µM | 13.1 µM | 0.32±0.02 | 4.3 µM | 0.96±0.35 | 5.68 µg/mL (≈ 17.2 µM) | 1.63 µM | 2.60±0.10 | 5.78 µM | 4.48 µM | 32.50±4.50 | 0.48±0.01 | 9.5 µM | 0.58±0.01 | 227 to 229 °C | 0.80±0.005
3 | COc1cc(C(=O)N/N=C/c2ccc(O)cc2)cc(OC)c1OC [Compound 5d, (E)-N′-(4-hydroxybenzylidene)-3,4,5-trimetoxybenzohydrazide] | 0.88 µM | 4.57 µM | 16 µM | 0.82±0.02 | 6.54 µM | 2.07±0.07 | 15 µg/mL (≈ 45.4 µM) | 2.63 µM | 5.15±0.05 | 6.18 µM | 13.4 µM | 16.06±0.86 | 1.16±0.06 | 11.8 µM | 2.96±0.86 | 189 °C | 2.22±0.02
4 | COc1cc(C(=O)N/N=C/c2ccc(O)c(O)c2)cc(OC)c1OC [Compound 5e, (E)-N′-(3,4-dihydroxybenzylidene)-3,4,5-trimetoxybenzohydrazide] | 11.8 µM | 24.4 µM | > 25 µM | – | > 25 µM | – | 3.94 µg/mL (≈ 11.4 µM) | 9.3 µM | 0.82±0.02 | > 25 µM | 7.36 µM | 0.06±0.00 | 0.30±0.00 | > 25 µM | 0.30±0.005 | 160 °C | 0.2±0.00
5 | COc1ccc(/C=N/NC(=O)c2cc(OC)c(OC)c(OC)c2)cc1OC [Compound 5g, (E)-N′-(3,4-dimethoxybenzylidene)-3,4,5-trimetoxybenzohydrazide] | 2.11 µM | 12.6 µM | 18.1 µM | 0.99±0.005 | 7.05 µM | 2.50±0.005 | 1.94 µg/mL (≈ 5.18 µM) | 4.43 µM | 4.10±0.10 | 7.11 µM | 18 µM | 8.41±0.09 | 1.80±0.005 | 10.2 µM | 1.44±0.04 | 190 to 191 °C | 2.55±0.05
